Results reported in patent US20110213193A1, “Magnetic Nanodelivery of Therapeutic Agents Across the Blood Brain Barrier” (THE FLORIDA INTERNATIONAL UNIVERSITY BOARD OF TRUSTEES, priority 2008, published 2011).

System: HIV-1 infected PBMCs
Assay: p24 antigen production by HIV-1 infected PBMCs
Assay type: cell-based
Conditions: identical culture conditions, various doses
Protocol: The efficacy of magnetic nanoparticle-AZTTP was evaluated in an in vitro model system using HIV infected peripheral blood mononuclear cells (PBMCs). […] Therefore, binding of AZTTP to magnetic nanoparticles have no effect on its biological activity.

## Cc1cn([C@H]2C[C@H](N=[N+]=[N-])[C@@H](COP(=O)(O)OP(=O)(O)OP(=O)(O)O)O2)c(=O)[nH]c1=O [free AZTTP, 3′-Azido-3′-Deoxythymidine-5′-triphosphate]
  anti-HIV activity of free AZTTP (positive control) and MP-AZTTP compared: similar
